In ChEMBL document CHEMBL5365407, “Design, synthesis and biological evaluation of nitric oxide-releasing 5-cyano-6-phenyl-2, 4-disubstituted pyrimidine derivatives” (Bioorg Med Chem Lett, 2023) one finds IC50 data, which are given here for 36 compounds.

pIC50: −log10 of the molar value. A value given as a limit tells only on which side of the number the result lay.

One experiment concerns PC-3. Kind of experiment: Antiproliferative activity against human PC-3 cells measured after 72 hrs by MTT assay. It counts as functional, cell-based. As to conditions: PC-3, 72 h. In general terms: Tetrazolium dyes change colour on reduction, which living cells bring about.
The subject of another experiment is MGC-803. The experiment in a line: cells. As to conditions: Homo sapiens, MGC-803, 72 h.
The next experiment relates to MCF7. Kind of experiment: cells. As to conditions: Homo sapiens, MCF7, 72 h.
For another experiment, the system named is ECa-109 cell line. The experiment in a line: Antiproliferative activity against human Eca-109 cells measured after 72 hrs by MTT assay. It counts as functional, cell-based. The following applies: ECa-109, 72 h.

Description for MCF7: Antiproliferative activity against human MCF7 cells measured after 72 hrs by MTT assay
Description for MGC-803: Antiproliferative activity against human MGC-803 cells measured after 72 hrs by MTT assay

For `CCCc1ccccc1Nc1nc(SCC(=O)N2CCN(CCOc3no[n+]([O-])c3S(=O)(=O)c3ccccc3)CC2)nc(-c2ccccc2)c1C#N`, the negative-log IC50 (pIC50) in the experiment on PC-3 was 5.67; in the experiment on MGC-803 it was 5.69; with MCF7, 5.56; in the experiment with ECa-109 cell line it was 5.34.

As to `Cc1cccc(Nc2nc(SCC(=O)N3CCN(CCOc4no[n+]([O-])c4S(=O)(=O)c4ccccc4)CC3)nc(-c3ccccc3)c2C#N)c1`, the pIC50 in the experiment on PC-3 is 5.68; in the experiment with MGC-803 it was 5.90; in the experiment on MCF7 it was 5.67; in the experiment with ECa-109 cell line, 5.62.

For the compound `N#Cc1c(Nc2ccccc2)nc(SCC(=O)OCCc2ccc(Oc3no[n+]([O-])c3S(=O)(=O)c3ccccc3)cc2)nc1-c1ccccc1`, the negative-log IC50 (pIC50) in the experiment on PC-3 was 5.68; with MGC-803, 4.73; in the experiment on MCF7, under 4.30; with ECa-109 cell line, 4.64.

For `CCOc1ccccc1Nc1nc(SCC(=O)N2CCN(CCOc3no[n+]([O-])c3S(=O)(=O)c3ccccc3)CC2)nc(-c2ccccc2)c1C#N`, the negative logarithm of the IC50 (pIC50) was 5.69 in the experiment with PC-3, 5.84 with MGC-803, 5.44 in the experiment on MCF7 and 5.43 with ECa-109 cell line.

Turning to `N#Cc1c(Nc2ccccc2)nc(SCC(=O)OCCCCCCOc2no[n+]([O-])c2S(=O)(=O)c2ccccc2)nc1-c1ccccc1`, the pIC50 in the experiment on PC-3 is 4.89; in the experiment with MGC-803, under 4.30; in the experiment with MCF7 it was under 4.30; with ECa-109 cell line it was under 4.30.

For `CCCc1cccc(Nc2nc(SCC(=O)N3CCN(CCOc4no[n+]([O-])c4S(=O)(=O)c4ccccc4)CC3)nc(-c3ccccc3)c2C#N)c1`, the pIC50 in the experiment on PC-3 is 5.53; in the experiment on MGC-803 it was 5.72; with MCF7, 5.52; in the experiment with ECa-109 cell line it was 5.09.

On to `N#Cc1c(Nc2cccc(Br)c2)nc(SCC(=O)N2CCN(CCOc3no[n+]([O-])c3S(=O)(=O)c3ccccc3)CC2)nc1-c1ccccc1`, for which the pIC50 in the experiment with PC-3 was 5.81; in the experiment on MGC-803 it was 5.88; in the experiment with MCF7, 5.50; in the experiment on ECa-109 cell line, 5.46.

For `CCc1ccccc1Nc1nc(SCC(=O)N2CCN(CCOc3no[n+]([O-])c3S(=O)(=O)c3ccccc3)CC2)nc(-c2ccccc2)c1C#N`, the pIC50 is 5.53 in the experiment with PC-3, 5.70 in the experiment with MGC-803, 5.59 in the experiment on MCF7 and 5.35 in the experiment on ECa-109 cell line.

With `N#Cc1c(Nc2ccccc2)nc(SCC(=O)NCCCCCOc2no[n+]([O-])c2S(=O)(=O)c2ccccc2)nc1-c1ccccc1`, the pIC50 was 5.64 in the experiment on PC-3, 5.66 with MGC-803, 5.40 in the experiment with MCF7 and 5.34 in the experiment with ECa-109 cell line.

In the case of `CN1CCN(c2nc(SCC(=O)N3CCN(CCOc4no[n+]([O-])c4S(=O)(=O)c4ccccc4)CC3)nc(-c3ccccc3)c2C#N)CC1`, the pIC50 is 5.80 in the experiment on PC-3, 5.84 with MGC-803, 5.57 with MCF7 and 5.63 in the experiment with ECa-109 cell line.

Turning to `N#Cc1c(Nc2ccccc2)nc(SCC(=O)OCCCCOc2no[n+]([O-])c2S(=O)(=O)c2ccccc2)nc1-c1ccccc1`, the negative-log IC50 (pIC50) is 5.61 in the experiment with PC-3, 5.15 in the experiment on MGC-803, 5.29 in the experiment with MCF7 and under 4.30 in the experiment with ECa-109 cell line.

Regarding `N#Cc1c(Nc2cccc(C(F)(F)F)c2)nc(SCC(=O)N2CCN(CCOc3no[n+]([O-])c3S(=O)(=O)c3ccccc3)CC2)nc1-c1ccccc1`, the pIC50 with PC-3 is 5.66; in the experiment with MGC-803, 5.90; in the experiment on MCF7, 5.66; in the experiment with ECa-109 cell line, 5.54.

For the compound `CCN1CCN(c2nc(SCC(=O)N3CCN(CCOc4no[n+]([O-])c4S(=O)(=O)c4ccccc4)CC3)nc(-c3ccccc3)c2C#N)CC1`, the pIC50 in the experiment on PC-3 was 5.85; with MGC-803, 5.91; with MCF7, 5.65; with ECa-109 cell line, 5.64.

For `N#Cc1c(Nc2cccc(F)c2)nc(SCC(=O)N2CCN(CCOc3no[n+]([O-])c3S(=O)(=O)c3ccccc3)CC2)nc1-c1ccccc1`, the pIC50 was 5.79 in the experiment with PC-3, 5.97 in the experiment with MGC-803, 5.57 with MCF7 and 5.34 in the experiment with ECa-109 cell line.

`COc1cccc(Nc2nc(SCC(=O)N3CCN(CCOc4no[n+]([O-])c4S(=O)(=O)c4ccccc4)CC3)nc(-c3ccccc3)c2C#N)c1`: the pIC50 is 5.47 with PC-3, 5.81 in the experiment on MGC-803, 5.68 with MCF7 and 5.34 in the experiment with ECa-109 cell line.

On to `N#Cc1c(-c2ccccc2)nc(SCC(=O)N2CCN(CCOc3no[n+]([O-])c3S(=O)(=O)c3ccccc3)CC2)nc1N1CCSCC1`, for which the pIC50 in the experiment with PC-3 is 5.30; with MGC-803 it was 5.34; in the experiment on MCF7, 5.17; with ECa-109 cell line, 5.18.

Consider `N#Cc1c(Nc2ccc(Cl)c(Cl)c2)nc(SCC(=O)N2CCN(CCOc3no[n+]([O-])c3S(=O)(=O)c3ccccc3)CC2)nc1-c1ccccc1`, for which the pIC50 in the experiment on PC-3 is 5.73; in the experiment on MGC-803, 5.73; in the experiment on MCF7 it was 5.47; with ECa-109 cell line, 5.41.

For the compound `N#Cc1c(Nc2ccc(Br)cc2)nc(SCC(=O)N2CCN(CCOc3no[n+]([O-])c3S(=O)(=O)c3ccccc3)CC2)nc1-c1ccccc1`, the pIC50 in the experiment with PC-3 was 5.71; with MGC-803 it was 5.86; with MCF7, 5.64; in the experiment on ECa-109 cell line, 5.48.

For the compound `N#Cc1c(Nc2ccccc2)nc(SCC(=O)NCCOc2no[n+]([O-])c2S(=O)(=O)c2ccccc2)nc1-c1ccccc1`, the pIC50 is 5.63 in the experiment with PC-3, 5.59 in the experiment on MGC-803, 5.38 in the experiment with MCF7 and 5.20 with ECa-109 cell line.

As to `Cc1ccccc1Nc1nc(SCC(=O)N2CCN(CCOc3no[n+]([O-])c3S(=O)(=O)c3ccccc3)CC2)nc(-c2ccccc2)c1C#N`, the pIC50 in the experiment with PC-3 is 5.65; with MGC-803 it was 5.80; in the experiment on MCF7, 5.63; in the experiment with ECa-109 cell line, 5.61.

As to `COc1ccccc1Nc1nc(SCC(=O)N2CCN(CCOc3no[n+]([O-])c3S(=O)(=O)c3ccccc3)CC2)nc(-c2ccccc2)c1C#N`, the pIC50 in the experiment with PC-3 is 5.77; with MGC-803 it was 5.84; in the experiment with MCF7 it was 5.48; in the experiment on ECa-109 cell line, 5.33.

Consider `CCc1ccc(Nc2nc(SCC(=O)N3CCN(CCOc4no[n+]([O-])c4S(=O)(=O)c4ccccc4)CC3)nc(-c3ccccc3)c2C#N)cc1`, for which the pIC50 was 5.57 with PC-3, 5.84 with MGC-803, 5.47 with MCF7 and 5.22 in the experiment on ECa-109 cell line.

As for `N#Cc1c(Nc2cccc(Cl)c2)nc(SCC(=O)N2CCN(CCOc3no[n+]([O-])c3S(=O)(=O)c3ccccc3)CC2)nc1-c1ccccc1`, the pIC50 is 5.84 with PC-3, 5.92 in the experiment on MGC-803, 5.60 in the experiment on MCF7 and 5.64 with ECa-109 cell line.

Turning to `N#Cc1c(Nc2ccc(C(F)(F)F)cc2)nc(SCC(=O)N2CCN(CCOc3no[n+]([O-])c3S(=O)(=O)c3ccccc3)CC2)nc1-c1ccccc1`, the pIC50 was 5.45 in the experiment on PC-3, 5.81 in the experiment with MGC-803, 5.65 with MCF7 and 5.33 in the experiment with ECa-109 cell line.

With `N#Cc1c(Nc2ccccc2)nc(SCC(=O)OCCCOc2no[n+]([O-])c2S(=O)(=O)c2ccccc2)nc1-c1ccccc1`, the pIC50 in the experiment on PC-3 was 5.63; in the experiment with MGC-803, 5.14; with MCF7 it was 5.12; in the experiment on ECa-109 cell line, 5.07.

As for `N#Cc1c(Nc2ccccc2)nc(SCC(=O)NCCCOc2no[n+]([O-])c2S(=O)(=O)c2ccccc2)nc1-c1ccccc1`, the pIC50 in the experiment on PC-3 is 5.64; with MGC-803 it was 5.53; in the experiment on MCF7 it was 5.22; with ECa-109 cell line it was 5.24.

As to `N#Cc1c(Nc2ccccc2)nc(SCC(=O)N2CCC(Oc3no[n+]([O-])c3S(=O)(=O)c3ccccc3)CC2)nc1-c1ccccc1`, the pIC50 in the experiment on PC-3 was 5.70; in the experiment on MGC-803, 5.59; in the experiment with MCF7, 5.22; in the experiment on ECa-109 cell line it was 5.15.

Take `O=S(=O)(c1ccccc1)c1c(OCCN2CCNCC2)no[n+]1[O-]`: in the experiment on MGC-803, the pIC50 is 5.17.

In the case of `N#Cc1c(Nc2ccccc2)nc(SCC(=O)OCC#CCOc2no[n+]([O-])c2S(=O)(=O)c2ccccc2)nc1-c1ccccc1`, the pIC50 in the experiment on PC-3 is 5.69; with MGC-803, 5.57; with MCF7, 4.98; with ECa-109 cell line it was 5.49.

Regarding `N#Cc1c(Nc2ccccc2F)nc(SCC(=O)N2CCN(CCOc3no[n+]([O-])c3S(=O)(=O)c3ccccc3)CC2)nc1-c1ccccc1`, the pIC50 in the experiment with PC-3 is 5.92; in the experiment with MGC-803, 5.84; in the experiment with MCF7, 5.64; with ECa-109 cell line it was 5.45.

On to `N#Cc1c(Nc2ccccc2)nc(SCC(=O)OCCCCCOc2no[n+]([O-])c2S(=O)(=O)c2ccccc2)nc1-c1ccccc1`, for which the pIC50 in the experiment with PC-3 is 5.64; with MGC-803, 5.42; in the experiment with MCF7, 5.23; in the experiment with ECa-109 cell line, under 4.30.

On to `N#Cc1c(Nc2ccccc2)nc(SCC(=O)N2CCN(CCOc3no[n+]([O-])c3S(=O)(=O)c3ccccc3)CC2)nc1-c1ccccc1`, for which the pIC50 was 5.72 with PC-3, 5.70 in the experiment with MGC-803, 5.53 with MCF7 and 5.64 in the experiment on ECa-109 cell line.

Regarding `C=CC(=O)Nc1cccc(Nc2nc(SCC(=O)N3CCN(CCOc4no[n+]([O-])c4S(=O)(=O)c4ccccc4)CC3)nc(-c3ccccc3)c2C#N)c1`, the pIC50 in the experiment on PC-3 was 5.73; in the experiment with MGC-803 it was 5.85; in the experiment with MCF7 it was 5.37; with ECa-109 cell line it was 5.44.

As to `CCCc1ccc(Nc2nc(SCC(=O)N3CCN(CCOc4no[n+]([O-])c4S(=O)(=O)c4ccccc4)CC3)nc(-c3ccccc3)c2C#N)cc1`, the pIC50 in the experiment with PC-3 was 5.94; with MGC-803, 5.96; in the experiment on MCF7 it was 5.68; with ECa-109 cell line, 5.27.

For the compound `N#Cc1c(Nc2ccc(F)cc2)nc(SCC(=O)N2CCN(CCOc3no[n+]([O-])c3S(=O)(=O)c3ccccc3)CC2)nc1-c1ccccc1`, the pIC50 was 5.86 in the experiment on PC-3, 5.81 with MGC-803, 5.65 in the experiment with MCF7 and 5.61 in the experiment on ECa-109 cell line.

For `Cc1ccc(Nc2nc(SCC(=O)N3CCN(CCOc4no[n+]([O-])c4S(=O)(=O)c4ccccc4)CC3)nc(-c3ccccc3)c2C#N)cc1`, the pIC50 in the experiment on PC-3 was 5.63; in the experiment on MGC-803 it was 5.87; in the experiment with MCF7 it was 5.67; in the experiment with ECa-109 cell line, 5.53.

What is called pIC50 is −log10 of the IC50, conventionally taken in molar units. The low end stands for a large IC50, the high end for a small IC50.
